Series [1] is described as follows: Fecal excretion of 4-HPR and metabolites. The series is classed as in vivo, mice. Also noted: Fecal excretion, amount: unit not given here. The method, then: The oral pharmacokinetics of Bio-nFeR were investigated in four independent groups of 24 mice, randomized to receive different treatment with the following fenretinide equivalent doses: 10, 50, 100 and 200 mg/Kg. The drug was administered by oral gavage and after treatment, blood samples were taken at 15 and 30 min and at 1, 2, 4, 8/10, 24 and 48 h and collected in heparinized tubes from the retro-orbital plexus of the mice under isoflurane anesthesia. Mice were then sacrificed by cervical dislocation and liver, kidney and brain were removed and immediately frozen in dry-ice for future determination. To obtain plasma, blood was centrifuged at 4000 rpm for 10 min at 4 °C. To evaluate fenretinide and metabolites excretion, urine and faeces were collected over a 0–24 h and 24–48 h periods. The collection was performed in three mice per group of treatment, individually housed into metabolic cages for urine and faeces collection. All the biological samples were stored at − 20 °C until analysis. To compare the absorption of Bio-nFeR to NCI-FeR and to study the bioavailability, another independent groups of 24 mice were randomized to receive an oral dose of 200 mg/Kg of NCI-FeR. Blood samples were taken at the time reported above. Twenty-four hours fractions of urine and faeces were collected in three mice per group of treatment. Plasma and the other biological specimens were stored at − 20 °C until analysis. Chronic study: the oral pharmacokinetic of Bio-nFeR in comparison with NCI-FeR were also investigated after chronic administrations. Mice were divided in three independent groups, randomized to receive a single treatment of 150 mg/Kg or different repeated treatments of 150 mg/Kg, daily for 2 weeks (12 days on and 2 days off), or 100 mg/Kg bi-daily for 1 week (5 days on 2 days off). Bio-nFeR and NCI-FeR were administered by oral gavage, collecting blood samples at 0.5, 1, 2, 4, 8/10 and 24 h, the day of the single treatment and at 0, 1, 2, 4, 8/10, 24 and 48 h after the last dose of both the chronic treatments. The procedures of blood collection, plasma preparation, sacrifice of mice and storing of samples were as reported in acute study. Also during chronic treatment, excretions of fenretinide and metabolites in urine and faeces were determined collecting the specimens in three mice per group, both at the start of treatment and at the end of the repeated administration. All the collected samples were stored at − 20 °C until analysis.
The determination of fenretinide in plasma of mice and the others biological samples was determined according to a method specifically developed and validated for the quantification of fenretinide (4-HPR) based on liquid chromatography-tandem mass spectrometry (LC–MS/MS) (manuscript in preparation). The procedure of sample preparation and quantification can be summarized as follows. 30 μL aliquot of plasma was added with 3 ng of deuterated internal standard (^2H4 4-HPR), deproteinized by mean of 90 μL of acetonitrile and centrifuged 5 min at 13200 rpm at room temperature. The supernatant was recovered and 5 μL injected into a HPLC system (Series 200, Perkin Elmer, MA, USA). Chromatographic separation was achieved on a Gemini-C18 column (50 mm × 2.0 mm, 5 μm particle size; Phenomenex Inc., Torrance, CA, USA) at 32 °C protected with a Security Guard™ ULTRA cartridges C18. The detection obtained by Mass spectrometric detection was carried out on a triple quadrupole API 4000 mass spectrometer (Sciex, MA, USA) equipped with atmospheric pressure chemical ionization source (APCI) operating in positive ion mode monitoring the transitions 392.3 > 283.2 m/z for 4-HPR and 396.3 > 283.2 m/z for the deuterated internal standard. To assay study samples, a calibration curve of six points (range: 1.0–500.00 ng/mL) was prepared in control mouse plasma assessing the precision and the accuracy of the run analyzing at the same time a set of freshly prepared quality controls samples. […]

The conditions of series [2]: stated as known, no reference given; cited from earlier work.
Setting [3] is: 2 wks 1 daily dose 150 mg/kg Bio-nFeR.
[4] abbreviates: 2 wks 1 daily dose 150 mg/kg NCI-FeR.
Where [5] appears, read: feces after 24 hours, acute Bio-nFeR 10 mg/kg.
Where [6] appears, read: feces after 24 hours, acute Bio-nFeR 50 mg/kg.
Where [7] appears, read: feces after 24 hours, acute Bio-nFeR 100 mg/kg.
The mark [8] stands for this setting: feces after 24 hours, acute Bio-nFeR 200 mg/kg.
The mark [9] stands for this setting: feces after 24 hours, acute NCI-FeR 200 mg/kg.
The mark [10] stands for this setting: single admin. 150 mg/kg Bio-nFeR.
The mark [11] stands for this setting: single admin. 150 mg/kg NCI-FeR.

Each structure is given as a SMILES string.

`CC1=C(/C=C/C(C)=C/C=C/C(C)=C/C(=O)Nc2ccc(O)cc2)C(C)(C)CCC1` [4-HPR, 4-hydroxy (phenyl)retinamide, reference compound]: the “Fecal excretion, amount” value in series [1] (setting [3]) is 97.4; in series [1] (setting [4]), 270; in series [1] (setting [5]), 4.7; in series [1] (setting [6]), 38.2; in series [1] (setting [7]), 33.6; in series [1] (setting [8]) it was 77.4. For the same compound, the “Fecal excretion, amount” value in series [1] (setting [9]) is 153.4; in series [1] (setting [10]), 129.5; in series [1] (setting [11]), 247.1. Also, the “Fecal excretion, percent (in brackets)” value in series [1] (setting [3]) is 4.2%; in series [1] (setting [4]), 7.6%; in series [1] (setting [5]), 3.2%; in series [1] (setting [6]) it was 4.0%; in series [1] (setting [7]) it was 1.9%; in series [1] (setting [8]) it was 2.5%. Further, the “Fecal excretion, percent (in brackets)” value in series [1] (setting [9]) is 5.5%; in series [1] (setting [10]), 6.1%; in series [1] (setting [11]), 9.2%.
In the case of `CC1=C(/C=C/C(C)=C/C=C/C(C)=C/C(=O)Nc2ccc(O)cc2)C(C)(C)CCC1=O` [4-oxo-4-HPR], the “Fecal excretion, amount” value in series [1] (setting [3]) was 97.5; in series [1] (setting [4]), 201.1; in series [1] (setting [5]), 47; in series [1] (setting [6]), 253.8; in series [1] (setting [7]) it was 85.5; in series [1] (setting [8]), 129.8. Further, the “Fecal excretion, amount” value in series [1] (setting [9]) stood at 115.6; in series [1] (setting [10]), 108.4; in series [1] (setting [11]), 103.7. In addition, the “Fecal excretion, percent (in brackets)” value was 4.2% in series [1] (setting [3]); 6.6% in series [1] (setting [4]); 32.6% in series [1] (setting [5]); 26.5% in series [1] (setting [6]); 4.9% in series [1] (setting [7]); 4.3% in series [1] (setting [8]). The entries for the “Fecal excretion, percent (in brackets)” value in series [1] (setting [9]), in series [1] (setting [10]) and in series [1] (setting [11]) were 3.9%, 5.0% and 4.2%, respectively.
Take `COc1ccc(NC(=O)\C=C(C)/C=C/C=C(C)\C=C\C2=C(C)CCCC2(C)C)cc1` [MPR]: the “Fecal excretion, amount” value was determined as 0.9 in series [1] (setting [3]); 0.8 in series [1] (setting [4]); 0.03 in series [1] (setting [5]); 0.5 in series [1] (setting [6]); 0.7 in series [1] (setting [7]); 1.2 in series [1] (setting [8]). Also, the “Fecal excretion, amount” value in series [1] (setting [9]) is recorded as 0.4; in series [1] (setting [10]), 1.6; in series [1] (setting [11]) it was 0.4. Besides, the “Fecal excretion, percent (in brackets)” value is given as 0.0% in series [1] (setting [3]); 0.0% in series [1] (setting [4]); 0.02% in series [1] (setting [5]); 0.05% in series [1] (setting [6]); 0.04% in series [1] (setting [7]); 0.05% in series [1] (setting [8]). The “Fecal excretion, percent (in brackets)” value in series [1] (setting [9]) was 0.02%; in series [1] (setting [10]), 0.1%; in series [1] (setting [11]), 0.02%. The “proportion of Bio-nFeR and NCI-FeR eliminated in faeces” value in series [1] (acute treatment at multiple doses and chronic treatment) is “less than 0.1%”. For the same compound, the “activity of the metabolite” value in series [2] was “inactive”.

The record behind these values is publication PMC6706930, “A novel oral micellar fenretinide formulation with enhanced bioavailability and antitumour activity against multiple tumours from cancer stem cells” (Journal of Experimental & Clinical Cancer Research : CR, 2019).
